# Columns and labels:
# [1] = test system: L. monocytogenes ATCC 19111; assay: MIC/MBC microdilution; assay type: cell-based, Listeria monocytogenes; conditions: lowest concentration that killed 99.9%; TSB-YE; highest concentration 100 µM
# [2] = test system: L. monocytogenes ATCC 15313; assay: MIC/MBC microdilution; assay type: cell-based, Listeria monocytogenes; conditions: lowest concentration that killed 99.9%; TSB-YE; highest concentration 100 µM
# [3] = test system: L. monocytogenes CMCC 54002; assay: MIC/MBC microdilution; assay type: cell-based, Listeria monocytogenes; conditions: lowest concentration that killed 99.9%; TSB-YE; highest concentration 100 µM
# [4] = test system: L. monocytogenes CICC 21632; assay: MIC/MBC microdilution; assay type: cell-based, Listeria monocytogenes; conditions: lowest concentration that killed 99.9%; TSB-YE; highest concentration 100 µM
# [5] = test system: L. monocytogenes ATCC 51780; assay: MIC/MBC microdilution; assay type: cell-based, Listeria monocytogenes; conditions: lowest concentration that killed 99.9%; TSB-YE; highest concentration 100 µM
# [6] = test system: L. monocytogenes ATCC BAA-751; assay: MIC/MBC microdilution; assay type: cell-based, Listeria monocytogenes; conditions: lowest concentration that killed 99.9%; TSB-YE; highest concentration 100 µM
# [7] = test system: L. monocytogenes ATCC 19112; assay: MIC/MBC microdilution; assay type: cell-based, Listeria monocytogenes; conditions: lowest concentration that killed 99.9%; TSB-YE; highest concentration 100 µM
# [8] = test system: L. monocytogenes ATCC 7644; assay: MIC/MBC microdilution; assay type: cell-based, Listeria monocytogenes; conditions: lowest concentration that killed 99.9%; TSB-YE; highest concentration 100 µM
# [9] = test system: L. monocytogenes ATCC 19113; assay: MIC/MBC microdilution; assay type: cell-based, Listeria monocytogenes; conditions: lowest concentration that killed 99.9%; TSB-YE; highest concentration 100 µM
# [10] = test system: L. monocytogenes ATCC 19114; assay: MIC/MBC microdilution; assay type: cell-based, Listeria monocytogenes; conditions: lowest concentration that killed 99.9%; TSB-YE; highest concentration 100 µM
# [11] = test system: L. monocytogenes LM201; assay: MIC/MBC microdilution; assay type: cell-based, Listeria monocytogenes; conditions: lowest concentration that killed 99.9%; TSB-YE; highest concentration 100 µM
# [12] = test system: L. monocytogenes LM605; assay: MIC/MBC microdilution; assay type: cell-based, Listeria monocytogenes; conditions: lowest concentration that killed 99.9%; TSB-YE; highest concentration 100 µM
# [13] = test system: L. monocytogenes ATCC 19115; assay: MIC/MBC microdilution; assay type: cell-based, Listeria monocytogenes; conditions: lowest concentration that killed 99.9%; TSB-YE; highest concentration 100 µM
# [14] = test system: L. monocytogenes ATCC 13932; assay: MIC/MBC microdilution; assay type: cell-based, Listeria monocytogenes; conditions: lowest concentration that killed 99.9%; TSB-YE; highest concentration 100 µM
# [15] = test system: L. monocytogenes ATCC 19116; assay: MIC/MBC microdilution; assay type: cell-based, Listeria monocytogenes; conditions: lowest concentration that killed 99.9%; TSB-YE; highest concentration 100 µM
# [16] = test system: L. monocytogenes ATCC 19117; assay: MIC/MBC microdilution; assay type: cell-based, Listeria monocytogenes; conditions: lowest concentration that killed 99.9%; TSB-YE; highest concentration 100 µM
# [17] = test system: L. monocytogenes ATCC 19118; assay: MIC/MBC microdilution; assay type: cell-based, Listeria monocytogenes; conditions: lowest concentration that killed 99.9%; TSB-YE; highest concentration 100 µM
# [18] = test system: L. monocytogenes NCT0890; assay: MIC/MBC microdilution; assay type: cell-based, Listeria monocytogenes; conditions: lowest concentration that killed 99.9%; TSB-YE; highest concentration 100 µM
# [19] = test system: all tested gram-negative strains; assay: MIC/MBC microdilution, summary over gram-negative strains; assay type: cell-based; conditions: up to 100 µM
# Experimental: The microdilution method ([25]) was used to measure the MIC of mycoidesin against indicator strains (Table S2). HPLC-purified mycoidesin was weighed and dissolved in a liquid culture medium to prepare various concentrations of mycoidesin (200.00, 100.00, 50.00, 25.00, 12.50, 6.25, 3.13, 1.56, 0.78, 0.39, 0.20, and 0.10 µM). A volume of 50 µL of different concentrations of mycoidesin solutions and 50 µL culture (1 × 10^6 CFU/mL) of the indicator strain were mixed in 96-well plates. The final concentrations of mycoidesin were 100.00, 50.00, 25.00, 12.50, 6.25, 3.13, 1.56, 0.78, 0.39, 0.20, 0.10, and 0.05 µM. […] The minimum bactericidal concentration (MBC) was the lowest concentration that killed 99.9% of the bacterial population. Nisin A was purified (Cayman Chemical, USA) as previously described ([26]) and was used to measure and compare the MIC values of L. monocytogenes strains and mycoidesin.
# [20] = test system: L. monocytogenes ATCC19111; assay: Intracellular accumulation of UDP-MurNAc-pentapeptide; assay type: cell-based, Listeria monocytogenes; conditions: mycoidesin 1× and 2× MIC, vancomycin 10× MIC; 60 min; chloramphenicol 130 µg/mL pre-incubation 15 min; HPLC, MS
# Experimental: (§1) Bacillus cereus CMCC63301 and L. monocytogenes ATCC19111 were grown to an OD600 of 0.3 and incubated with chloramphenicol (130 µg/mL) for 15 min. Mycoidesin (1× and 2× MIC) and vancomycin (10× MIC; positive control) were added and incubated for 60 min. The cells were collected, added to boiling water, treated for 15 min, centrifuged, and the supernatant was lyophilized. The intracellular accumulation of the peptidoglycan precursor UDP-MurNAc-pentapeptide was analyzed using HPLC (Hypersil ODS column) and identified via mass spectrometry ([27]).
# [21] = test system: Bacillus cereus CMCC63301; assay: as above; assay type: cell-based; conditions: mycoidesin 1× and 2× MIC, vancomycin 10× MIC; 60 min; chloramphenicol 130 µg/mL pre-incubation 15 min; HPLC, MS
# Experimental: as §1
# [22] = test system: L. monocytogenes ATCC19111; assay: Time-kill curves (OD600 and CFU); assay type: cell-based, Listeria monocytogenes
# Excerpt: Cell growth was monitored hourly by measuring CFU on TSB plates and OD600 values of the cultures.
# [23] = test system: B. cereus CMCC63301; assay: Potassium release and SEM (cell membrane damage); assay type: cell-based, Bacillus cereus; conditions: potassium release 1×, 2×, 4× MIC, 1 h; SEM 2× and 4× MIC, 3 h, 30°C
# Experimental: (§2) The amount of potassium released was measured using a HI96750 Potassium Photometer.
# (§3) Bacillus cereus CMCC63301 and L. monocytogenes ATCC19111 were grown in TSB medium to an OD600 of 0.3. […] The cells were harvested after centrifugation (6,000 × g, 10 min), washed with PBS buffer thrice, and fixed with 2.5% (vol/vol) glutaraldehyde for 12 h at 4°C. Subsequently, the cells were subjected to gradient dehydration for 10 min, treated with isoamyl acetate for 10 min, dried with a lyophilizer for 12 h, coated with gold-palladium, and observed using a Zeiss Gemini360 instrument ([18]).
# [24] = test system: L. monocytogenes ATCC19111; assay: Potassium release and SEM (cell membrane damage); assay type: cell-based, Listeria monocytogenes; conditions: potassium release 1×, 8×, 32× MIC, 1 h; SEM 8× and 32× MIC, 3 h, 30°C
# Experimental: as §2, §3
# [25] = test system: B. subtilis CMCC63501; assay: Stability: residual antimicrobial activity by agar diffusion; assay type: physicochemical, Bacillus subtilis; conditions: up to 12 h
# Experimental: After treatment for 2, 4, 6, 8, 10, and 12 h, the residual antimicrobial activity of the samples was measured using the agar diffusion method, with B. subtilis CMCC63501 as the indicator strain.
smiles,measurement,setting,value
C/C=C1\NC(=O)CNC(=O)[C@H](CCSC)NC(=O)[C@@H]2CS[C@@H](C)[C@@H](NC(=O)[C@@H]3CSC[C@@H](NC(=O)[C@H](CC(C)C)NC(=O)[C@H](CC(N)=O)NC(=O)[C@@H](N)Cc4ccc(O)cc4)C(=O)N[C@@H](C)C(=O)N[C@@H](C)C(=O)N[C@@H]([C@@H](C)CC)C(=O)N[C@@H](C)C(=O)N[C@@H](CC(=O)O)C(=O)N[C@@H](C)C(=O)N[C@@H](C)C(=O)NCC(=O)N[C@@H](CC(C)C)C(=O)N[C@@H](CCCCN)C(=O)NCC(=O)N[C@@H](CC(N)=O)C(=O)N[C@@H](Cc4ccc(O)cc4)C(=O)NCC(=O)N[C@@H](CCCCN)C(=O)N[C@@H](Cc4ccccc4)C(=O)N3)C(=O)N[C@@H](Cc3ccc(O)cc3)C(=O)N[C@H](CSC[C@@H](C(=O)NCC(=O)N[C@@H](CO)C(=O)O)NC(=O)[C@H](CO)NC(=O)[C@H](C(C)C)NC1=O)C(=O)N[C@@H](C)C(=O)N[C@@H](CCC(=O)O)C(=O)N2 [mycoidesin],MBC,[1],NA (No activity was detected even at the highest concentration of mycoidesin (100 µM))
same,MBC,[2],NA (No activity was detected even at the highest concentration of mycoidesin (100 µM))
same,MBC,[3],NA (No activity was detected even at the highest concentration of mycoidesin (100 µM))
same,MBC,[4],NA (No activity was detected even at the highest concentration of mycoidesin (100 µM))
same,MBC,[5],NA (No activity was detected even at the highest concentration of mycoidesin (100 µM))
same,MBC,[6],NA (No activity was detected even at the highest concentration of mycoidesin (100 µM))
same,MBC,[7],NA (No activity was detected even at the highest concentration of mycoidesin (100 µM))
same,MBC,[8],NA (No activity was detected even at the highest concentration of mycoidesin (100 µM))
same,MBC,[9],NA (No activity was detected even at the highest concentration of mycoidesin (100 µM))
same,MBC,[10],NA (No activity was detected even at the highest concentration of mycoidesin (100 µM))
same,MBC,[11],NA (No activity was detected even at the highest concentration of mycoidesin (100 µM))
same,MBC,[12],NA (No activity was detected even at the highest concentration of mycoidesin (100 µM))
same,MBC,[13],NA (No activity was detected even at the highest concentration of mycoidesin (100 µM))
same,MBC,[14],NA (No activity was detected even at the highest concentration of mycoidesin (100 µM))
same,MBC,[15],NA (No activity was detected even at the highest concentration of mycoidesin (100 µM))
same,MBC,[16],NA (No activity was detected even at the highest concentration of mycoidesin (100 µM))
same,MBC,[17],NA (No activity was detected even at the highest concentration of mycoidesin (100 µM))
same,MBC,[18],NA (No activity was detected even at the highest concentration of mycoidesin (100 µM))
same,antimicrobial activity,[19],no antimicrobial activity
same,Intracellular accumulation of UDP-MurNAc-pentapeptide,[20],observed
same,Intracellular accumulation of UDP-MurNAc-pentapeptide,[21],observed
same,effect on growth,"[22]; 1×–32× MIC (0.39–12.5 µM), TSB, 30°C, 3 h, OD600",suppressed by mycoidesin in a time- and concentration-dependent manner
same,type of antimicrobial effect,"[22]; low and high concentrations (1×–32× MIC, 0.39–12.5 µM)",bacteriostatic activity
same,cell death (viable count),"[22]; up to 32× MIC (12.5 µM), 30°C, 3 h, CFU",did not cause L. monocytogenes cell membrane damage or cell death
same,cell membrane damage,[23],caused damage to the cell membrane
same,cell membrane damage,[24],did not cause L. monocytogenes cell membrane damage or cell death
same,residual antimicrobial activity,"[25]; pH 7.0, 37°C, mycoidesin 6.25 µM, nisin A 12.5 µM (4× MIC)",remained unchanged
same,residual antimicrobial activity,"[25]; pH 7.0, 60°C, mycoidesin 6.25 µM (4× MIC)",decreased with increasing incubation time
same,residual antimicrobial activity,"[25]; pH 8.0, 37°C, mycoidesin 6.25 µM, nisin A 12.5 µM (4× MIC)",decreased
same,residual antimicrobial activity,"[25]; pH 8.0, 60°C, mycoidesin 6.25 µM (4× MIC)",decreased with increasing incubation time

# Reference: PMC12016531 (Applied and Environmental Microbiology, 2025)
